Like-named read-outs stand apart in the source and are kept apart here. Ends that are not written are not given here.
Tests used:
[1] = test system: HCT116 tumor cell line; experiment: Tumor cell toxicity, MTT assay; type: cell-based; details: Homo sapiens, HCT-116, 72 h; 40 μg/ml Paclitaxel, after 3 days; read-out: cell viability (percentage of drug-free samples)
Protocol: Tumor cell toxicity was determined by incubating Paclitaxel drug, encapsulated in NPs, with HCT116 tumor cell line, seeded at a density of 5×10^4 cells/cm^2 and cultured in basal media (40 μg/ml Paclitaxel) for 24, 48, and 72 h. At each time point, suspension was removed, cells were washed with PBS, and viability was assessed by the MTT assay. FIG. 3(d) compares cell viability of HCT116 cells (expressed as the percentage of the values obtained from cells in the presence of drug compared to those in drug-free samples) incubated with 40 μg/ml Paclitaxel with that incubated with the same concentration encapsulated in PLGF NPs. […] Cell viability of Paclitaxel in solution after 3 days was 40% while that encapsulated in NPs was 28%. […] Toxicity of CV6K2-PLGF NPs to normal cells was assessed with bone marrow stromal (BMS) cells isolated from the bone marrow of Wistar rats. BMS cells were seeded in 24 well plates in primary media at a density of 4×10^4 cells/cm^2, incubated for 24 h for cell attachment. After cell attachment, the media was replaced with media containing […] of CV6K2-PLGF NPs and incubated for 1, 2, and 3 days. At each time point, the cells were washed with PBS to remove the free NPs, and the fraction of viable cells was measured by the MTT assay.

[2] = NP morphology and size distribution by electron microscopy and dynamic light scattering; type: physicochemical; details: Example 2
Source text: Fumarate functionalized poly(lactide-co-glycolide) (PLGF) NPs are conjugated with CV6K2 peptide to stabilize the NPs through specific interactions between the amino acid side chains. Low molecular weight poly(lactide-co-glycolide) (LMW PLGA) are synthesized by ring opening polymerization of a mixture of lactide and glycolide monomers. PLGF was synthesized by polymerization of ULMW PLGA with fumaryl chloride (FuCl). The fumarate groups in PLGF macromer provide functionality for covalent attachment of ligands which bind with high specificity to receptors on tumor-associated cells, like the αvβ3 integrin receptor. ULMW PLGA with number-average molecular weight in the range 1-3 kDa was used in the synthesis of PLGF for highest density of unsaturated fumarate groups for ligand conjugation. […] The morphology and size distribution of the NPs were determined by SEM and dynamic light scattering, respectively. […]
Nanoparticle (NP) self-assembly and characterization: PLAF-CV6K2 or PLGF-CV6K2 macromers were dissolved in a solution of 1 mL DMF and 8 mL dimethysulfoxide (DMSO). […] The size distribution of NPs was measured by dynamic light scattering (DLS). […] At each time point, NPs size was measured with DLS. […] The fraction of mass remaining was determined by dividing the dried mass in the supernatant at time t by the initial mass at time zero.

[3] = Release kinetics of Paclitaxel from NPs in-vitro in PBS (pH 7.4); type: physicochemical
Protocol: Degradation and release characteristics of NPs. PLGF macromer with 100:0 lactide to glycolide ratio (PLAF) was synthesized by condensation polymerization. CV6K2 peptide was conjugated to PLAF to produce CV6K2-PLAF macromer. PLGF-PLEOF and CV6K2-PLGF NPs were produced by dialysis of the macromers in dimethylsulfoxide/dimethylformamide (DMSO/DMF) against water. Degradation of PLGF-PLEOF NPs was non-linear with incubation. […] To measure release kinetics, Paclitaxel was used as the surrogate molecule. Paclitaxel loaded NPs were prepared by dialysis. After dialysis, the NPs were dissolved in DMSO and 3 ml of acetonitrile-water mixture (50:50 v/v) was added. After 2 h, the suspension was centrifuged and the amount of Paclitaxel in the supernatant was measured by isocratic reverse-phase HPLC with a photodiode array detector at the wavelength of 227 nm. The encapsulation efficiency ranged from 70 to 56% and decreased with increasing Paclitaxel concentration. […]
Release profiles of Paclitaxel from CV6K2 NPs: NPs (6% Paclitaxel by weight of the PLAF or PLGF macromer) were prepared by dialysis. After dialysis for 24 h to self-assemble the macromers and to remove the unencapsulated Paclitaxel, encapsulation efficiency was determined by HPLC. The release kinetics of Paclitaxel from the NPs was measured in-vitro in PBS (pH 7.4) for up to 28 days. […]

[4] = test system: mouse breast cancer MTCL; experiment: In vivo effect of the NPs on host toxicity and anti-tumor efficacy; details: tail vein injection; Dox 6 mg/kg of body weight where present
Protocol: In accordance with the present disclosure, a mouse breast cancer MTCL grown under the back skin of syngeneic C3H mice was utilized. When the tumor size reached 300 mm^3, mice were randomly divided into 6 groups (10 mice/group) and received one of these treatments by tail vein injection: PBS, PLAA-EO NPs, PLAA-CV6K2 NPs, Dox, Dox+PLAA-EO NPs, and Dox+PLAA-CV6K2 NPs. The injected Dox amount was 6 mg/kg of body weight. After the treatment, body weight and tumor size were measured daily and the results are shown in FIGS. 10a and 10b, respectively. […] Near-infrared (NIR) imaging was used to determine in vivo distribution of the NPs loaded with near-infrared dye IRDye 800RS Carboxylate (absorption at 786 nm). The infrared intensity in the intestinal region was at least 100 times higher than the other regions (confirmed by sacrificing the animal and directly imaging the intestinal tissue as shown in the inset of FIG. 10c).

[5] = test system: MCF-7 cells; experiment: Binding of cyclic peptide grafted NPs to tumor cells, confocal microscopy; type: cell-based
Source text: (§1) Targeting to tumor endothelial cells by grafting cyclic c(-RGDfC-) peptide to NPs: The linear D-Phe-Cys-Arg-Gly-Asp peptide was synthesized manually using Fmoc chemistry. After peptide chain elongation, the linear peptide was cyclized directly on the peptidyl resin by coupling the carboxylate group on aspartic acid to the amine group on phenylalanine in the peptide sequence. The cyclized peptide was side-chain deprotected, cleaved from the resin, precipitated in cold ether, and purified by preparative high-performance liquid chromatography (HPLC). The cyclic peptide was characterized by Electro Spray Ionization (ESI) spectrometry For grafting, […] peptide was incubated with NPs at ambient conditions for 10 h. After grafting, the NPs were purified by dialysis against water and incubated with MCF-7 and U87MG tumor cells. After incubation, unattached NPs were removed by washing, cells were fixed, and stained with phalloidin (for cytoskeleton) and DAPI (for cell nuclei) and imaged with confocal microscopy. FIGS. 5(a) and 5(b) show the image of MCF-7 and U87MG cells, respectively. The bright dots in FIG. 5(b) and their absence in FIG. 5(a) are the FITC-stained c(-GRGfC-) peptide grafted NPs that are attached/internalized by U87MG cells that have high expression of αvβ3 integrin receptor.

[6] = test system: U87MG cells (high expression of αvβ3 integrin receptor); experiment: as above; type: cell-based
Source text: as §1

CC(=O)O[C@H]1C(=O)[C@@]2(C)[C@H]([C@H](OC(=O)c3ccccc3)[C@]3(O)C[C@H](OC(=O)[C@H](O)[C@@H](NC(=O)c4ccccc4)c4ccccc4)C(C)=C1C3(C)C)[C@]1(OC(C)=O)CO[C@@H]1C[C@@H]2O [Paclitaxel]
viability at 40 µg/mL [1]: 40%

CVVVVVVKK [CV6K2 NPs, NPs self-assembled from the CV6K2 peptide only]
average diameter (NP size), DLS [2]: 70 nm | duration of Paclitaxel release [3]: 3 days | duration of Paclitaxel release ([3]; listed as peptide): 5 days

COc1cccc2c1C(=O)c1c(O)c3c(c(O)c1C2=O)C[C@@](O)(C(=O)CO)C[C@@H]3O[C@H]1C[C@H](N)[C@H](O)[C@H](C)O1 [Dox]
host toxicity (body weight change) [4]: highest body weight loss

c(-GRGfC-) grafted NPs: FITC-stained NPs grafted with cyclic D-Phe-Cys-Arg-Gly-Asp peptide
attachment/internalization of FITC-stained grafted NPs [5]: absence | attachment/internalization of FITC-stained grafted NPs [6]: attached/internalized
